Source: ChEMBL document CHEMBL3885881, “DrugMatrix”

Assays:
Rattus norvegicus [1] = species on record: Rattus norvegicus; assay: DrugMatrix - Regimen: Daily Repeat; assay type: toxicity, organism-based, Sprague-Dawley; set-up: regimen Daily Repeat, gender Male, age 6-8 weeks; conditions: in vivo, po, 17 mg/kg, route oral GAVAGE, dose level High, vehicle .5 % CMC
Rattus norvegicus [2] = species on record: Rattus norvegicus; assay type: toxicity, organism-based, Sprague-Dawley; conditions: in vivo, po, 17 mg/kg, 24 h, route oral GAVAGE, dose level High, time 1 day, vehicle .5 % CMC
Description: DrugMatrix - Regimen: Single

[3] = […], tissue Plasma, time 14 day

Compound: O=C(Nc1c(Cl)cncc1Cl)c1ccc(OC(F)F)c(OCC2CC2)c1 [ROFLUMILAST]
- URIC ACID (Rattus norvegicus [1]; 96 h, tissue Plasma, time 4 day): 1.7 mg/dL
- ABSOLUTE BASOPHIL (Rattus norvegicus [1]; […], tissue Blood, time 14 day): 0 CELLS/uL
- ABSOLUTE EOSINOPHIL (Rattus norvegicus [1]; […], tissue Blood, time 14 day): 0 CELLS/uL
- ABSOLUTE LYMPHOCYTE (Rattus norvegicus [1]; […], tissue Blood, time 14 day): 3828.67 CELLS/uL
- ABSOLUTE MONOCYTE (Rattus norvegicus [1]; […], tissue Blood, time 14 day): 852.67 CELLS/uL
- ABSOLUTE SEGMENTED NEUTROPHIL (Rattus norvegicus [1]; […], tissue Blood, time 14 day): 8985.33 CELLS/uL
- BASOPHIL (Rattus norvegicus [1]; […], tissue Blood, time 14 day): 0%
- EOSINOPHIL (Rattus norvegicus [1]; […], tissue Blood, time 14 day): 0%
- ERYTHROCYTE COUNT (Rattus norvegicus [1]; […], tissue Blood, time 14 day): 7.38 x10E6/uL
- HEMATOCRIT (Rattus norvegicus [1]; […], tissue Blood, time 14 day): 41.2%
- HEMOGLOBIN (Rattus norvegicus [1]; […], tissue Blood, time 14 day): 14.73 G/DL
- LEUKOCYTE COUNT (Rattus norvegicus [1]; […], tissue Blood, time 14 day): 13.67 x10E3/uL
- LYMPHOCYTE (Rattus norvegicus [1]; […], tissue Blood, time 14 day): 26%
- MEAN CORPUSCULAR HEMOGLOBIN (Rattus norvegicus [1]; […], tissue Blood, time 14 day): 20 pg
- MEAN CORPUSCULAR HEMOGLOBIN CONCENTRATION (Rattus norvegicus [1]; […], tissue Blood, time 14 day): 35.83 G/DL
- MONOCYTE (Rattus norvegicus [1]; […], tissue Blood, time 14 day): 6.33%
- NEUTROPHIL (Rattus norvegicus [1]; […], tissue Blood, time 14 day): 67.67%
- NUCLEATED RED BLOOD CELLS (Rattus norvegicus [1]; […], tissue Blood, time 14 day): 0 /100WBC
- PLATELET COUNT (Rattus norvegicus [1]; […], tissue Blood, time 14 day): 2047.33 x10E3/uL
- ALANINE AMINOTRANSFERASE (Rattus norvegicus [1]; [3]): 33 u/L
- ALBUMIN (Rattus norvegicus [1]; [3]): 3.1 G/DL
- ALKALINE PHOSPHATASE (Rattus norvegicus [1]; [3]): 109 u/L
- ASPARTATE AMINOTRANSFERASE (Rattus norvegicus [1]; [3]): 103.67 u/L
- BLOOD UREA NITROGEN (Rattus norvegicus [1]; [3]): 25 mg/dL
- CARBON DIOXIDE (Rattus norvegicus [1]; [3]): 30 mmol/L
- CHLORIDE (Rattus norvegicus [1]; [3]): 97.5 MEQ/L
- CHOLESTEROL (Rattus norvegicus [1]; [3]): 42.5 mg/dL
- CREATININE (Rattus norvegicus [1]; [3]): 0.19 mg/dL
- GLUCOSE (Rattus norvegicus [1]; [3]): 128 mg/dL
- LACTATE DEHYDROGENASE (Rattus norvegicus [1]; [3]): 569 u/L
- LIPASE (Rattus norvegicus [1]; [3]): 10 u/L
- PHOSPHORUS (Rattus norvegicus [1]; [3]): 9.15 mg/dL
- POTASSIUM (Rattus norvegicus [1]; [3]): 5.72 MEQ/L
- SODIUM (Rattus norvegicus [1]; [3]): 142.95 MEQ/L
- TOTAL BILIRUBIN (Rattus norvegicus [1]; [3]): 0.1 mg/dL
- TOTAL PROTEIN (Rattus norvegicus [1]; [3]): 6.25 G/DL
- URIC ACID (Rattus norvegicus [1]; [3]): 1.7 mg/dL
- ABSOLUTE EOSINOPHIL (Rattus norvegicus [2]; tissue Blood): 58.67 CELLS/uL
- ABSOLUTE LYMPHOCYTE (Rattus norvegicus [2]; tissue Blood): 7680 CELLS/uL
- ABSOLUTE MONOCYTE (Rattus norvegicus [2]; tissue Blood): 245.33 CELLS/uL
- ABSOLUTE SEGMENTED NEUTROPHIL (Rattus norvegicus [2]; tissue Blood): 416 CELLS/uL
- BASOPHIL (Rattus norvegicus [2]; tissue Blood): 0%
- EOSINOPHIL (Rattus norvegicus [2]; tissue Blood): 0.67%
- ERYTHROCYTE COUNT (Rattus norvegicus [2]; tissue Blood): 5.72 x10E6/uL
- HEMATOCRIT (Rattus norvegicus [2]; tissue Blood): 34.83%
- HEMOGLOBIN (Rattus norvegicus [2]; tissue Blood): 12.9 G/DL
- LEUKOCYTE COUNT (Rattus norvegicus [2]; tissue Blood): 8.4 x10E3/uL
- LYMPHOCYTE (Rattus norvegicus [2]; tissue Blood): 91.33%
- MEAN CORPUSCULAR HEMOGLOBIN (Rattus norvegicus [2]; tissue Blood): 22.67 pg
- MEAN CORPUSCULAR HEMOGLOBIN CONCENTRATION (Rattus norvegicus [2]; tissue Blood): 37.1 G/DL
- MONOCYTE (Rattus norvegicus [2]; tissue Blood): 3%
- NEUTROPHIL (Rattus norvegicus [2]; tissue Blood): 5%
- NUCLEATED RED BLOOD CELLS (Rattus norvegicus [2]; tissue Blood): 0 /100WBC
- PLATELET COUNT (Rattus norvegicus [2]; tissue Blood): 734 x10E3/uL
- ALANINE AMINOTRANSFERASE (Rattus norvegicus [2]; tissue Plasma): 52.33 u/L
- ALBUMIN (Rattus norvegicus [2]; tissue Plasma): 4.07 G/DL
- ALKALINE PHOSPHATASE (Rattus norvegicus [2]; tissue Plasma): 343 u/L
- ASPARTATE AMINOTRANSFERASE (Rattus norvegicus [2]; tissue Plasma): 103 u/L
- BLOOD UREA NITROGEN (Rattus norvegicus [2]; tissue Plasma): 16.33 mg/dL
- CARBON DIOXIDE (Rattus norvegicus [2]; tissue Plasma): 32 mmol/L
- CHLORIDE (Rattus norvegicus [2]; tissue Plasma): 103.33 MEQ/L
- CHOLESTEROL (Rattus norvegicus [2]; tissue Plasma): 76.67 mg/dL
- CREATININE (Rattus norvegicus [2]; tissue Plasma): 0.17 mg/dL
- GLUCOSE (Rattus norvegicus [2]; tissue Plasma): 156.33 mg/dL
- LACTATE DEHYDROGENASE (Rattus norvegicus [2]; tissue Plasma): 133.67 u/L
- LIPASE (Rattus norvegicus [2]; tissue Plasma): 9.33 u/L
- PHOSPHORUS (Rattus norvegicus [2]; tissue Plasma): 12.87 mg/dL
- POTASSIUM (Rattus norvegicus [2]; tissue Plasma): 6.09 MEQ/L
- SODIUM (Rattus norvegicus [2]; tissue Plasma): 148.53 MEQ/L
- TOTAL BILIRUBIN (Rattus norvegicus [2]; tissue Plasma): 0.17 mg/dL
- TOTAL PROTEIN (Rattus norvegicus [2]; tissue Plasma): 6.2 G/DL
- URIC ACID (Rattus norvegicus [2]; tissue Plasma): 1.27 mg/dL
